Test results as given in patent US6710877B2, “Apparatus and methods for determining biomolecular interactions” (Corning Incorporated, priority 2001, dated 2004).
Where two headings read alike, the source gives them in different places.

Tests used:
Format in all cases: binding
streptavidin [1] = target: T1, streptavidin (Streptomyces avidinii, UniProt P22629); test: Three slot diffraction sensor: leaching of ligand out of the central sensing volume
T1 construct: purchased Sigma Corp., St. Louis, Mo; B3763
T1 sequence (P22629 25-183, species assumed): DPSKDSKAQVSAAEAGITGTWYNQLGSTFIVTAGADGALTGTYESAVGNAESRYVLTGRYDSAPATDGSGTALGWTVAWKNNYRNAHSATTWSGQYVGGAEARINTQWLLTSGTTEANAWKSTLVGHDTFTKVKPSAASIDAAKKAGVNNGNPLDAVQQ

streptavidin [2] = target: T1, streptavidin; test: Dual compartment absorbance sensor: leaching of ligand from agarose gel containing streptavidin; details: for effective binding constant k from fit of equation 3 to concentration-time traces: 2.5% agarose gel, streptavidin, 8.4×10^−4 M ligand, 0.1×SSC buffer, 220 nm absorbance; for coefficient1 of fitting function f=coefficient1*Error_Function(coefficient2*time^1/2) / coefficient2 of fitting function f=coefficient1*Error_Function(coefficient2*time^1/2): average of traces, Marquardt-Levenberg fit
anti-biotin = test: Dual compartment absorbance sensor: leaching of ligand from agarose gel containing anti-biotin; details: anti-biotin instead of streptavidin, otherwise as Example 2

| Structure (SMILES) | leaching out of central sensing volume, peak-to-peak intensity difference versus time (FIG. 10) (streptavidin [1]) | effective binding constant k from fit of equation 3 to concentration-time traces (streptavidin [2]) [min⁻¹] | coefficient1 of fitting function f=coefficient1*Error_Function(coefficient2*time^1/2) (streptavidin [2]) [mM] | coefficient2 of fitting function f=coefficient1*Error_Function(coefficient2*time^1/2) (streptavidin [2]) | factor by which binding constant k of biotin exceeds that of glutamine (streptavidin [2]; biotin versus glutamine curve-fits) | binding affinities with anti-biotin in upstream compartment (FIGS. 7A and 7B) (anti-biotin) | leaching out of central sensing volume, peak-to-peak intensity difference versus time (FIG. 10) (streptavidin [1]; three samples each, 1×TBE buffer, qualitative) |
| --- | --- | --- | --- | --- | --- | --- | --- |
| O=C(O)CCCC[C@@H]1SC[C@@H]2NC(=O)N[C@@H]21 [biotin] | more activity in the biotin traces | 0.01186 | ~1.5 | 0.1089 | 4 | indistinguishable |  |
| NC(=O)CC[C@H](N)C(=O)O [glutamine] |  | 0.00325 | ~1.6 | 0.0570 |  | indistinguishable | much slower than biotin leaching |
